Results from patent publication US12447153B2, “HER2 mutation inhibitors” (Array BioPharma Inc., priority 2021, dated 2025).

Columns and labels:
ErbB2 WT = ErbB2 WT (Homo sapiens (Human), UniProt P04626); assay: ErbB Enzyme Assay (HTRF KinEASE-TK), Assay 2; format: biochemical
EGFR = EGFR (Homo sapiens (Human), UniProt P00533); assay: ErbB Enzyme Assay (HTRF KinEASE-TK), Assay 3; format: biochemical
[1] = molecular target: ErbB2 with Exon 20 YVMA insertion (HER2-YVMA) (Homo sapiens (Human), UniProt P04626, INS775YVMA); assay: Cellular Phosphorylation Assay, Assay 4 (constitutive ErbB2 phosphorylation, NIH 3T3 cells); format: cell-based
EGFR wild type (EGFR WT) = EGFR wild type (EGFR WT) (Homo sapiens (Human), UniProt P00533); assay: Cellular Phosphorylation Assay, Assay 5 (EGF-stimulated EGFR phosphorylation, NIH 3T3 cells); format: cell-based
Chain of EGFR wild type (EGFR WT) (P00533 25-1210): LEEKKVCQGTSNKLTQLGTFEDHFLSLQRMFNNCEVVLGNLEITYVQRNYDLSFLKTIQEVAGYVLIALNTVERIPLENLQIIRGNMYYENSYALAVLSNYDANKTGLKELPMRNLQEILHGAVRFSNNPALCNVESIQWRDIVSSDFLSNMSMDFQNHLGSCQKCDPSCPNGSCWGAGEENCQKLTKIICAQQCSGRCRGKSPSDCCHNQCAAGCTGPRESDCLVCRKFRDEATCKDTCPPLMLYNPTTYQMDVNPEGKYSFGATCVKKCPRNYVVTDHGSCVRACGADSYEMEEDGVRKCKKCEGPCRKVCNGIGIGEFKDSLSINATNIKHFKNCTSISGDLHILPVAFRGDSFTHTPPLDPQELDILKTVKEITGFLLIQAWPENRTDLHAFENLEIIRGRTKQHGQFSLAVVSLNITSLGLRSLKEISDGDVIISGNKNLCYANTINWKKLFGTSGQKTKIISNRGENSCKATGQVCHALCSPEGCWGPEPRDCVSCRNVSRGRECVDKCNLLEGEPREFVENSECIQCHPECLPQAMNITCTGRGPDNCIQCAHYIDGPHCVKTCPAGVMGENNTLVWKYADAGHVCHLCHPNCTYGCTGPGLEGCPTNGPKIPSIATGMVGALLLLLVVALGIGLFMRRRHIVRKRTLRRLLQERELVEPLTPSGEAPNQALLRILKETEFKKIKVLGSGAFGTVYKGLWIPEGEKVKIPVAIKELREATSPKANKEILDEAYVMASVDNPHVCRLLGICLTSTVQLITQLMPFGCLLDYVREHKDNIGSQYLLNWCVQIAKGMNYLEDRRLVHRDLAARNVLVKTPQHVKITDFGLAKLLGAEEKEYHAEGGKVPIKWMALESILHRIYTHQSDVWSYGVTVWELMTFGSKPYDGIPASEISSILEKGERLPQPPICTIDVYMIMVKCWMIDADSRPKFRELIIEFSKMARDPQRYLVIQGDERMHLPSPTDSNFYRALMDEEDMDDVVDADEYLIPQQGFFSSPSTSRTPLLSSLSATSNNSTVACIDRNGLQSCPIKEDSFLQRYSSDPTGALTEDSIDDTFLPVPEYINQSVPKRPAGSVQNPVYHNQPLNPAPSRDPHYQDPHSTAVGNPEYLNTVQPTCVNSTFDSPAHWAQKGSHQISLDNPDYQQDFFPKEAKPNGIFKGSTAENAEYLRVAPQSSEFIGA

BCRP = BCRP (Homo sapiens (Human), UniProt Q9UNQ0); assay: BCRP MDCKII efflux assay (Assay 7); format: in vitro ADME; conditions: dog; efflux ratio Papp(B-A)/Papp(A-B), BCRP MDCKII cells; read-out: Assay 7 Pe Ratio
Chain of BCRP (Q9UNQ0 whole entry): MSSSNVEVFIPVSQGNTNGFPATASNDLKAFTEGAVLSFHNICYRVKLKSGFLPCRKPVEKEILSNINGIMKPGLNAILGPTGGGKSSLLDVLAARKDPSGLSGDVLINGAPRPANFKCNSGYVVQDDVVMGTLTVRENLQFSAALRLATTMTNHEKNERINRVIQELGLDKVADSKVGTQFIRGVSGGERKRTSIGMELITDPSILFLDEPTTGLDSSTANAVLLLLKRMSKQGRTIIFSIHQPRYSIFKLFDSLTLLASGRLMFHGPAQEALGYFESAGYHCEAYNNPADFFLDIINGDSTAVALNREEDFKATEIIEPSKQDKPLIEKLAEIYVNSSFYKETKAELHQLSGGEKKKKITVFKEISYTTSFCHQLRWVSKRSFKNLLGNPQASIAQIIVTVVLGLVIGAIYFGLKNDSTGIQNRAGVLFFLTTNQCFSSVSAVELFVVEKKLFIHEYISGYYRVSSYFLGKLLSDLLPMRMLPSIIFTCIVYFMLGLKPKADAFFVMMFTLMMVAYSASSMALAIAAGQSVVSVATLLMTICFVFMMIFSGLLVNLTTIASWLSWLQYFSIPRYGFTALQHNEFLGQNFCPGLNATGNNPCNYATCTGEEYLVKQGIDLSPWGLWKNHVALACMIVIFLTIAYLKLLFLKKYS
Experimental: Assay conditions included with and without the BCRP-specific inhibitor, KO143, at a concentration of 0.3 μM to ascertain the contribution of BCRP to the efflux value of the test compound.
Final organic concentration in the assay was 1%.

MDR1 (P-gp) = MDR1 (P-gp) (Homo sapiens (Human), UniProt P08183); assay: in vitro; conditions: pig, LLC-PK1
Chain of MDR1 (P-gp) (P08183 whole entry): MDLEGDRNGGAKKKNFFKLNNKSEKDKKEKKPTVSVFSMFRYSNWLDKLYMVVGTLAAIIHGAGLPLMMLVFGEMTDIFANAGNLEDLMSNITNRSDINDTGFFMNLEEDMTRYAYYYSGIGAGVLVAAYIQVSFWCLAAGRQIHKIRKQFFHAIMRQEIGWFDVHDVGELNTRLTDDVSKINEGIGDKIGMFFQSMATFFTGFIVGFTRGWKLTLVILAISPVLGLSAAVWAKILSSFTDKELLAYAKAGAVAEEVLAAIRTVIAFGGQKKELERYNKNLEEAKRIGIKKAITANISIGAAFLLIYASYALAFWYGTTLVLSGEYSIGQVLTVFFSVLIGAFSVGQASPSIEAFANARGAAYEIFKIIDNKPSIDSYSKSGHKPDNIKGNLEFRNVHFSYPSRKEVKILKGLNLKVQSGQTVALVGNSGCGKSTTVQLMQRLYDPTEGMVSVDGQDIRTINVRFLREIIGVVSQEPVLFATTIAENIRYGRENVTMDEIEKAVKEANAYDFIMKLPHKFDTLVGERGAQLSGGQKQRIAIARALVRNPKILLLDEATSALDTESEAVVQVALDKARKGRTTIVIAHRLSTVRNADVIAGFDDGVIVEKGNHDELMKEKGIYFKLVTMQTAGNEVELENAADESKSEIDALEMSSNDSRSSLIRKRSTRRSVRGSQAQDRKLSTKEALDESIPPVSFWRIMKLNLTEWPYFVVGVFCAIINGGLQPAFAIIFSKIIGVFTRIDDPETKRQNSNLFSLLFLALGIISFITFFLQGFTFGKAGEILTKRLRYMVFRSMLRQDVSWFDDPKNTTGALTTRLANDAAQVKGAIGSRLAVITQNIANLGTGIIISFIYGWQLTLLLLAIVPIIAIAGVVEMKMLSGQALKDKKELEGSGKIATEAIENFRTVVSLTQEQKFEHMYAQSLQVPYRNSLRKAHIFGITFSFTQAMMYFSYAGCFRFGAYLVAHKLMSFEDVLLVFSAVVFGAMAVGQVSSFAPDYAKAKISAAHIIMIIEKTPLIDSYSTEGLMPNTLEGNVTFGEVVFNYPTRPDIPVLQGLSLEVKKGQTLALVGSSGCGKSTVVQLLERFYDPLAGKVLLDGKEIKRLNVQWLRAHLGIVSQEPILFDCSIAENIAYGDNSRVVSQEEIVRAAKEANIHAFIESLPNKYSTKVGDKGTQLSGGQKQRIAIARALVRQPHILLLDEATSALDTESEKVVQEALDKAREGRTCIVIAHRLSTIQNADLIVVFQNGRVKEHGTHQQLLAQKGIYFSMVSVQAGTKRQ

[2] = EGF-stimulated EGFR WT phosphorylation
[3] = cellular ErbB2 YVMA phosphorylation
[4] = cellular EGFR WT phosphorylation, EGF-stimulated

Chain of EGFR (P00533 25-1210): as the sequence (P00533 25-1210) above

Row | IC50 (ErbB2 WT; ErbB2 WT enzyme) [nM] | IC50 (EGFR; EGFR enzyme) [nM] | IC50 ([1]; ErbB2 YVMA phosphorylation) [nM] | IC50 (EGFR wild type (EGFR WT); [2]) [nM] | efflux ratio at 2 h, 1 µM (BCRP) | efflux ratio at 2 h, 1 µM (MDR1 (P-gp)) | SMILES | IC50 (ErbB2 WT; ErbB2 WT enzyme assay) [nM] | IC50 (EGFR; EGFR enzyme assay) [nM] | IC50 [1, 3] [nM] | IC50 (EGFR wild type (EGFR WT); [4]) [nM]
1 | 36.4 | 5080 | 28.9 | 2420 | 4.3 | 1.1 | C=CC(=O)N1CCN(c2ccc3ncnc(Nc4cc(C)c(Oc5ccn6ncnc6c5)cc4F)c3n2)CC1(C)C [Example 73, 1-(4-(4-((4-([1,2,4]triazolo[1,5-a]pyridin-7-yloxy)-2-fluoro-5-methylphenyl)amino)pyrido[3,2-d]pyrimidin-6-yl)-2,2-dimethylpiperazin-1-yl)prop-2-en-1-one] |  |  |  | 
2 | 45.8 | ≥ 10000 | 14.7 | 665 | 2.5 | 1.1 | C=CC(=O)N1CCN(c2ccc3ncnc(Nc4cc(C)c(Oc5ccn6ncnc6c5)cc4F)c3n2)C[C@H]1CC [Example 164, (R)-1-(4-(4-((4-([1,2,4]triazolo[1,5-a]pyridin-7-yloxy)-2-fluoro-5-methylphenyl)amino)pyrido[3,2-d]pyrimidin-6-yl)-2-ethylpiperazin-1-yl)prop-2-en-1-one] |  |  |  | 
3 | 133 | 5830 | 309 | ≥ 5000 | 1.4 | 1.3 | C=CC(=O)N1C[C@H]2CC[C@@H](C1)[C@@H]2c1ccc2ncnc(Nc3cc(C)c(Oc4ccn5ncnc5c4)cc3F)c2n1 [Example 222, 1-((1R,5S,8r)-8-(4-((4-([1,2,4]triazolo[1,5-a]pyridin-7-yloxy)-2-fluoro-5-methylphenyl)amino)pyrido[3,2-d]pyrimidin-6-yl)-3-azabicyclo[3.2.1]octan-3-yl)prop-2-en-1-one] |  |  |  | 
4 | 3300 | ≥ 10000 | 54.2 | 2920 | 2.5 | 1.3 | C=CC(=O)N1CCC(Oc2ccc3ncnc(Nc4ccc(Oc5ccc6cn(C)nc6c5)c(C)c4F)c3n2)CC1 [Example 6, 1-(4-((4-((2-fluoro-3-methyl-4-((2-methyl-2H-indazol-6-yl)oxy)phenyl)amino)pyrido[3,2-d]pyrimidin-6-yl)oxy)piperidin-1-yl)prop-2-en-1-one] |  |  |  | 
5 |  |  |  |  | 1.8 | 3.2 | C=CC(=O)N1C[C@@H]2C[C@H](c3ccc4ncnc(Nc5cc(C)c(Oc6ccc7c(c6)ncn7C)cc5F)c4n3)C[C@H]1C2 [Example 388] | 40.7 | 1800 | 28.1 | 1700

Row | SMILES | IC50 (ErbB2 WT; ErbB2 WT enzyme) [nM] | IC50 (EGFR; EGFR enzyme) [nM] | IC50 ([1]; ErbB2 YVMA phosphorylation) [nM] | IC50 (EGFR wild type (EGFR WT); [2]) [nM] | efflux ratio at 2 h, 1 µM (BCRP) | efflux ratio at 2 h, 1 µM (MDR1 (P-gp)) | IC50 (ErbB2 WT; ErbB2 WT enzyme assay) [nM] | IC50 (EGFR; EGFR enzyme assay) [nM] | IC50 [1, 3] [nM] | IC50 (EGFR wild type (EGFR WT); [4]) [nM]
6 | C=CC(=O)N1C2CC1CN(c1ccc3ncnc(Nc4ccc(Oc5ccn6ncnc6c5)c(Cl)c4F)c3n1)C2 [Example 25, 1-(3-(4-((4-([1,2,4]triazolo[1,5-a]pyridin-7-yloxy)-3-chloro-2-fluorophenyl)amino)pyrido[3,2-d]pyrimidin-6-yl)-3,6-diazabicyclo[3.1.1]heptan-6-yl)prop-2-en-1-one] | 50.1 | 558 | 12.1 | 324 | 6.8 | 2.2 |  |  |  | 
7 | C=CC(=O)N1CC2CC(C1)N2c1ccc2ncnc(Nc3cc(Cl)c(Oc4ccn5ncnc5c4)cc3F)c2n1 [Example 45, 1-(6-(4-((4-([1,2,4]triazolo[1,5-a]pyridin-7-yloxy)-5-chloro-2-fluorophenyl)amino)pyrido[3,2-d]pyrimidin-6-yl)-3,6-diazabicyclo[3.1.1]heptan-3-yl)prop-2-en-1-one] | 222 | 8300 | 17.1 | 2760 | 5.6 | 2.5 |  |  |  | 
8 | C=CC(=O)N1[C@@H]2CCC[C@H]1[C@@H](c1ccc3ncnc(Nc4ccc(Oc5ccn6ncnc6c5)c(C)c4F)c3n1)C2 [Example 415] |  |  |  |  | 1.8 | 1 | 9.8 | 247 | 32 | ≥ 5000
